Assay results: patent publication US11684667B2 (priority 2017, dated 2023)

Tests used:
BMDMs [1] = assay type: cell-based, mouse; settings: zVAD 20 μM
Procedure: Cell death assays. Cell viability and Caspase 3/7 activity were measured using CellTiter Glo (G7571, Promega) or CaspaseGlo 3/7 (G8091, Promega) respectively, according to the manufacturer's protocol, with modification.
Cell death assays. Cell viability and Caspase 3/7 activity were measured using CellTiter Glo (G7571, Promega) or CaspaseGlo 3/7 (G8091, Promega) respectively, according to the manufacturer's protocol, with modification. Briefly, 3.0×10^5 BMDMs/well were plated in 24-well plates and infected at an MOI of 0.1 for 1 h in serum-free media. Media was replaced with complete media, or for addition of chemical inhibitors, viral inoculum was replaced with completed BMM media containing indicated concentration of inhibitors. Infected BMDMs were incubated for 24h at 37° C./5% CO2. BMDMs were washed twice with 1×PBS and lysed with 100 μL Glo reagent/medium mixture (1:1). 50 μL of cell lysate was used for measuring the luminescence signal. Standard deviation and unpaired t test were performed on technical triplicates and data are representative of three independent experiments. Graphs of cell viability were generated using Prism 7 software (GraphPad Software, Inc.).

BMDMs [2] = assay type: cell-based, mouse; settings: N15m1-infected BMDMs, MOI 0.1, 18 hpi; zVAD 20 μM, C16 1 μM
Procedure: Bioanalyzer RNA analysis. Equal amounts of total RNA purified from BMDMs were analyzed on an Agilent 2100 Bioanalyzer using RNA Nano LabChips.

zVAD
prevention of virus-induced cell death by inhibitor (BMDMs [1]; N15m1-infected BMDMs, 24 hpi, Nec-1 25 μM, VX-765 20 μM): prevented virus-induced cell death
effect of inhibitor on caspase 3/7 activation in N15m1-infected BMDMs (BMDMs [1]; C16 1 μM): inhibited by zVAD
effect of inhibitor on degradation of host rRNA (BMDMs [2]): not inhibited
